pEC50: −log10 of the molar value.
Columns and labels:
[1] = target: T1, TLR8 (Homo sapiens, UniProt Q9NR97); test: TLR8 cell based assay (HEK-BLUE-hTLR8, SEAP reporter linked to NF-κB activation); details: HEK-BLUE-hTLR8 cells
T1 construct: host or cells: HEK293 (HEK-BLUE-hTLR8)
T1 sequence (Q9NR97 27-1041): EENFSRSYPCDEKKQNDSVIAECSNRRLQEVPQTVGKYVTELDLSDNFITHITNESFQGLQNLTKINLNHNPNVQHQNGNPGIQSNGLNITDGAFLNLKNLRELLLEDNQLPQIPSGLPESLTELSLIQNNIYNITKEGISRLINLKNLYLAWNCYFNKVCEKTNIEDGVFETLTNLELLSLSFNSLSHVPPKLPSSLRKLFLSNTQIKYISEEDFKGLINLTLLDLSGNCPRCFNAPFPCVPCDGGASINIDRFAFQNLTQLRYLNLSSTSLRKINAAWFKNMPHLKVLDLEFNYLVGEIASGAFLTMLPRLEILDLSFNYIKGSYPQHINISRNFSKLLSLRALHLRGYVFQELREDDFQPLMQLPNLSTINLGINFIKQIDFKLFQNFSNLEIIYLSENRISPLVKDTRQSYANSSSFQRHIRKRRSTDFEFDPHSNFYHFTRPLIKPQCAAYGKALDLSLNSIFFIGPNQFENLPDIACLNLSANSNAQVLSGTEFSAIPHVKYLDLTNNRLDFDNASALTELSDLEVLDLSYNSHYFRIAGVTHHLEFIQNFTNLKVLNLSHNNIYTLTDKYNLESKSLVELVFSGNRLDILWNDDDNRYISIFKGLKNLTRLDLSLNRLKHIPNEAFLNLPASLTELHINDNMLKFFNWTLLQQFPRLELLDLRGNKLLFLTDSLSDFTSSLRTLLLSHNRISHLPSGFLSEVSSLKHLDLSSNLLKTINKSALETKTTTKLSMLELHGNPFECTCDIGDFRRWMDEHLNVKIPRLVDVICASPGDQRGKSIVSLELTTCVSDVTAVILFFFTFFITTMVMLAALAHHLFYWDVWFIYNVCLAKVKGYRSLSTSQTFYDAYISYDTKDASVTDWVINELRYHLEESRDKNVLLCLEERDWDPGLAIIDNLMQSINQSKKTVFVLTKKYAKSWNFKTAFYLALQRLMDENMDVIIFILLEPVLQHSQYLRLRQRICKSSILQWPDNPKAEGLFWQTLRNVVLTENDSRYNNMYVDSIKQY
In short: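 HEK-BLUE-hTLR8 cells (40,000/well) exposed 24 h at 37° C, 5% CO2 to compound, 10 points from 0.5 nM to 15 μM, 0.5% DMSO. Supernatant SEAP read with QUANTI-Blue (1.5 h, 37° C) at OD 650 nm; activation % normalized to DMSO and TLR8 agonist control, EC50 fitted.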

[2] = target: T2, TLR7 (Homo sapiens, UniProt Q9NYK1); test: TLR7 cell based assay (HEK-BLUE-hTLR7, SEAP reporter linked to NF-κB activation); details: HEK-BLUE-hTLR7 cells, 24 hours treatment, SEAP/QUANTI-Blue readout
T2 construct: host or cells: HEK293 (HEK-BLUE-hTLR7)
T2 sequence (Q9NYK1 27-1049): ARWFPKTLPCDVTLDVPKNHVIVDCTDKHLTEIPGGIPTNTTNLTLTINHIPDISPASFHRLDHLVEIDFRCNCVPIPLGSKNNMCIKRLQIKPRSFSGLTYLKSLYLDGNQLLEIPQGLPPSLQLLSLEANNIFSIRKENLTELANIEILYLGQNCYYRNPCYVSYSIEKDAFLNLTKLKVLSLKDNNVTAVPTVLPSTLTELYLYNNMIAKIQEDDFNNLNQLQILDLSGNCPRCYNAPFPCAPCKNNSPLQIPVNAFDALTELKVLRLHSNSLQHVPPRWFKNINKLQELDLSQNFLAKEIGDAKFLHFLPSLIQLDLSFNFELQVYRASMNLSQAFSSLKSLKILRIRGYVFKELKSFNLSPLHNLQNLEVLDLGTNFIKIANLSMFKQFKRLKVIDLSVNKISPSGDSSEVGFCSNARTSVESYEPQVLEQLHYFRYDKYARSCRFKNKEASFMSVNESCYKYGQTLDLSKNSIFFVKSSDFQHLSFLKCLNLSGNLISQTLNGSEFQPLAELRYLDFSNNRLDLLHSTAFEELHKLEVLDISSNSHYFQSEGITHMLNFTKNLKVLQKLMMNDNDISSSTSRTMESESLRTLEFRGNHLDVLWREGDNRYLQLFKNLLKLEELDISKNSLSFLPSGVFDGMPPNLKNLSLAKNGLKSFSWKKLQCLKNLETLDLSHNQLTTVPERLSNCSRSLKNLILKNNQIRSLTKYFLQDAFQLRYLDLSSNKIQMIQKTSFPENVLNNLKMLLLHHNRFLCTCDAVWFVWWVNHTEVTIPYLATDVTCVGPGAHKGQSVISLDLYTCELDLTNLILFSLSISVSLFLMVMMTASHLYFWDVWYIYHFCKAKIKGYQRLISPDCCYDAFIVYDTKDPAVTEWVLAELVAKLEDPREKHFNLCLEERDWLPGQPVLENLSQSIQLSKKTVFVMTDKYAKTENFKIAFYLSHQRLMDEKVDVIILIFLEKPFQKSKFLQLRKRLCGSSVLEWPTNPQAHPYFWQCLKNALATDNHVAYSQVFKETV
Procedure: In this assay, the bioactivity of compound of formula (I) was measured using a cell based assay. The assay was performed in human embryonic kidney cells (HEK293) expressing TLR7 or other TLR family members such as TLR4, and TLR9 (for selectivity screens). The activity of specific TLR agonists was assessed using the secretory embryonic alkaline phosphatase (SEAP) reporter gene that is linked to NF-κB activation in response to TLR stimulation. The SEAP activity was measured using the Quanti-Blue substrate (InvivoGen) after TLR agonist treatment.
The detailed experimental method is as follow:
HEK-BLUE-hTLR7 cell line was purchased from InvivoGen. The cells were cultured in Dulbecco's Modified Eagle's Media containing 4.5 g/L […] (Sigma-Aldrich) and 10% FBS. The cells were cultured at 37° C., 95% humidity and 5% CO2.
[…] A known TLR8 agonist was added as positive control and 1 μl of DMSO was added as negative control.
The cells were prepared as follows. The cells were removed from the incubator and growth medium was discarded. The cells were gently rinsed with pre-warmed 10 ml PBS for a T-150 flask. 12 ml pre-warmed growth medium was added, and the cells were detached by tapping the flask. Cell clumps were dissociated by gently pipetting up and down. The cells were counted. Single cell suspension was prepared at 200,000 cells per ml in growth medium and 200 μl of the cell suspension (40,000 cells per well) were immediately added to each well of the plate. The final DMSO concentration of each well was 0.5%.
The cells were cultured and treated with the compounds at 37° C., 5% CO2 for 24 hours.
20 μL of the supernatant of each well were added to 180 μL of QUANTI-Blue, and the plates were incubated at 37° C. for 1.5 hour. Optical density was measured using a spectrophotometer at 650 nm (OD data). Activivation was calculated by using the equation below: Activivation %=(Compound OD mean value−DMSO OD mean value)/(positive control OD mean value−DMSO OD mean value)×100
The data were analyzed using the GraphPad to get EC50 values and fitting dose response curves of the compounds.

[3] = 24 h treatment, SEAP/QUANTI-Blue readout

Row | SMILES | pEC50 [1, 3] | pEC50 [2] | pEC50 ([1]; bound stated)
1 | CCCN(CCC)C(=O)C1=Cc2ccc(-c3ccc4c(=O)n(CCO)ncc4c3)cc2N=C(N)C1 [Compound 1-8-3] | > 7.00 | < 4.30 | –
2 | CCCN(CCC)C(=O)C1=Cc2ccc(-c3ccc4c(=O)n(CC(N)=O)c(C)cc4c3)cc2N=C(N)C1 [Compound 1-2-16] | > 7.00 | < 4.30 | –
3 | CCCN(CCC)C(=O)C1=Cc2ccc(-c3ccc4c(=O)n(CCOP(=O)(OC)OC)ccc4c3)cc2N=C(N)C1 [Compound 1-2-45] | > 7.00 | 4.30 to 5.00 | –
4 | CCCN(CCC)C(=O)C1=Cc2ccc(-c3ccc4c(=O)n(Cc5ncccn5)ccc4c3)cc2N=C(N)C1 [Compound 1-2-31] | > 7.00 | 4.30 to 5.00 | > 8.00
5 | CCCN(CCC)C(=O)C1=Cc2ccc(-c3ccc4c(=O)n(CCS(C)(=O)=O)cnc4c3)cc2N=C(N)C1 [Compound 1-7-2] | 6.00 to 7.00 | < 4.30 | –
6 | CCCN(CCC)C(=O)C1=Cc2ccc(-c3ccc4c(=O)n(CCO)c(C)cc4c3)cc2N=C(N)C1 [Compound 1-2-8] | > 7.00 | < 4.30 | –
7 | CCCN(CCC)C(=O)C1=Cc2ccc(-c3ccc4c(=O)n(Cc5ccn(C)n5)ccc4c3)cc2N=C(N)C1 [Compound 1-2-35] | > 7.00 | < 4.30 | –
8 | CCCN(CCC)C(=O)C1=Cc2ccc(-c3ccc4c(=O)n(CCP(=O)(OCC)OCC)ccc4c3)cc2N=C(N)C1 [Compound 1-2-43] | 6.00 to 7.00 | < 4.30 | –

Continued, values first:

Row | pEC50 [1, 3] | pEC50 [2] | pEC50 ([1]; bound stated) | SMILES
9 | > 7.00 | < 4.30 | – | CCCN(CCC)C(=O)C1=Cc2ccc(-c3ccc4c(=O)n(CCNS(C)(=O)=O)ccc4c3)cc2N=C(N)C1 [Compound 1-2-19]
10 | > 7.00 | 5.00 to 6.00 | – | CCCN(CCC)C(=O)C1=Cc2ccc(-c3ccc4c(=O)n(CCn5cccn5)ccc4c3)cc2N=C(N)C1 [Compound 1-2-32]
11 | > 7.00 | < 4.30 | – | CCCN(CCC)C(=O)C1=Cc2ccc(-c3ccc4c(=O)n(CCNC(C)=O)ccc4c3)cc2N=C(N)C1 [Compound 1-2-18]
12 | > 7.00 | < 4.30 | – | CCCN(CCC)C(=O)C1=Cc2ccc(-c3ccc4c(=O)n(CCSC)ccc4c3)cc2N=C(N)C1 [Compound 1-2-22]
13 | > 7.00 | < 4.30 | – | CCCN(CCC)C(=O)C1=Cc2ccc(-c3ccc4c(=O)n(CCS(C)(=O)=O)ccc4c3)cc2N=C(N)C1 [Compound 1-2-23]
